Laboratory results from patent US10124004B2, “Pyrido[3,4-d]pyrimidine derivative and pharmaceutically acceptable salt thereof” (Teijin Pharma Limited, priority 2015, dated 2018).
Like-named read-outs stand apart in the source and are kept apart here.

Assays:
CDK2/cyclin A2 = molecular target: T1, CDK2/cyclin A2 (Homo sapiens, UniProt P24941); test: Human CDK2/cyclin A2 inhibitory activity (QS S Assist CDK2/Cyclin A2_FP Kit, IMAP fluorescence polarization); type: biochemical
T1 construct: purchased Carna Biosciences, Inc. QS S Assist CDK2/Cyclin A2_FP Kit
Procedure, shortened: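 Kinase activity read as fluorescence polarization (485/535 nm) after phosphorylated fluorescent substrate binds IMAP reagent (30 min, RT, dark). Enzyme (2.5 ng/well) reacted 60 min at RT with ATP/substrate/metal in HEPES pH 7.4 buffer with Tween 20 and DTT; no-enzyme wells define 0% activity; IC50 by curve fit.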

CDK4/cyclin D3 = molecular target: T2, CDK4/cyclin D3 (Homo sapiens, UniProt P11802); test: Human CDK4/cyclin D3 inhibitory activity (QS S Assist CDK4/Cyclin D3_FP Kit, IMAP fluorescence polarization); type: biochemical
T2 construct: purchased Carna Biosciences, Inc. QS S Assist CDK4/Cyclin D3_FP Kit
T2 sequence (P11802 whole entry): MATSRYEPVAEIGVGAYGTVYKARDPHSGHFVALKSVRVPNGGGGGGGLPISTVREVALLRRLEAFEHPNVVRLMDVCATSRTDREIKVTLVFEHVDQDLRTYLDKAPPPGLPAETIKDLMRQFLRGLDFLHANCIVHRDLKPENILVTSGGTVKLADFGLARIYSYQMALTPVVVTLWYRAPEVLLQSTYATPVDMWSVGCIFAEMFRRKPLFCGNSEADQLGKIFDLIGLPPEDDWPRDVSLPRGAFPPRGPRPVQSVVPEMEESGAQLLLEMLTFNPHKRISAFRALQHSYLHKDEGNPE
T2 sequence (P30281 whole entry partner): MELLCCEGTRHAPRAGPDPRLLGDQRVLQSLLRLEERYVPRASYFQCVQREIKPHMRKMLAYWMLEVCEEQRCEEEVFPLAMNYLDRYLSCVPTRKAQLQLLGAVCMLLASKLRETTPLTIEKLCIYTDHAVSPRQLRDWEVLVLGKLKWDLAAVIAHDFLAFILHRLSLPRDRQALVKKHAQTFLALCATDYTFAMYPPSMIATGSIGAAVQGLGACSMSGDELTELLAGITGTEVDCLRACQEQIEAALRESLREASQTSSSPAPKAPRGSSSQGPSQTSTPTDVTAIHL
Procedure, shortened: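 Percent inhibition, relative to DMSO with and without enzyme, was curve-fitted to give IC50 from polarization (ex 485, em 535 nm). The 45-min room-temperature reaction used 12.5-25 ng/well enzyme, kit ATP/substrate/metal mix, and HEPES pH 7.4 buffer with Tween20 and DTT, followed by 30-min IMAP binding in the dark.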

[1] = Human CDK2/cyclin A2 inhibitory activity, read-out: CDK2 Activity symbol
[2] = Human CDK4/cyclin D3 inhibitory activity, read-out: CDK4 Activity symbol
[3] = 50% inhibitory concentration against CDK2/cyclin A2, given as class symbol
[4] = 50% inhibitory concentration against CDK4/cyclin D3, given as class symbol

Structure (SMILES)	IC50 (CDK2/cyclin A2; [1]) [µM]	IC50 (CDK4/cyclin D3; [2]) [µM]	IC50 (CDK2/cyclin A2; [3]) [µM]	IC50 (CDK4/cyclin D3; [4]) [µM]
CC(C)Nc1nc(C(F)F)cc2cnc(Nc3ccc(C4CCS(=O)(=O)CC4)cn3)nc12 [Compound 159]	≥ 0.1	< 0.01	–	–
C[C@@H](O)c1cc2cnc(Nc3ccc(N4CCNCC4)nn3)nc2c(NC(C)(C)CC(=O)O)n1 [Compound 327]	≥ 0.1	0.01 to 0.1	–	–
CC(C)Nc1nc([C@@H](C)O)cc2cnc(Nc3ccc(N4CCC(O)C(C)(C)C4)nn3)nc12 (stereo partly shown) [Compound 664]	–	–	≥ 0.1	< 0.01
C[C@@H](O)c1cc2cnc(Nc3ccc(CC4CCN(CCO)CC4)cn3)nc2c(NCC2CCOCC2)n1 [Compound 953]	–	–	≥ 0.1	< 0.01
c1cc(Nc2ncc3cc(C4CCOC4)nc(N[C@H]4CCCOC4)c3n2)ncc1CN1CCNCC1 (stereo partly shown) [Compound 882]	–	–	≥ 0.1	< 0.01
CCNc1nc([C@@H](C)OC)cc2cnc(Nc3ccc(N4CCNCC4)cn3)nc12 [Compound 919]	–	–	≥ 0.1	< 0.01
CC(C)Nc1nc([C@@H](C)O)cc2cnc(Nc3ccc(NC(=O)C4CCCNC4)cn3)nc12 (stereo partly shown) [Compound 769]	–	–	≥ 0.1	< 0.01
COCC(C)(C)Nc1nc([C@@H](C)O)cc2cnc(Nc3ccc(CN4CCOCC4=O)cn3)nc12 [Compound 198]	≥ 0.1	0.01 to 0.1	–	–
CO[C@H](C)c1cc2cnc(Nc3ccc(N4CCNCC4)nn3)nc2c(N[C@H]2CC[C@H](O)CC2)n1 [Compound 341]	≥ 0.1	< 0.01	–	–
CO[C@H](C)c1cc2cnc(Nc3ccc(N4CC[C@H](N)[C@@H](F)C4)cn3)nc2c(NC(C)C)n1 [Compound 467]	≥ 0.1	< 0.01	–	–
CO[C@H](C)c1cc2cnc(Nc3ccc(N4CCOCC4)cn3)nc2c(NC(C)C)n1 [Compound 214]	≥ 0.1	< 0.01	–	–
CO[C@H](C)c1cc2cnc(Nc3ccc(CN4CCCOCC4)cn3)nc2c(NC(C)C)n1 [Compound 273]	≥ 0.1	< 0.01	–	–
CCNc1nc([C@@H](C)O)cc2cnc(Nc3ccc(CN4CCN(C[C@H](C)O)CC4)cn3)nc12 [Compound 976]	–	–	≥ 0.1	< 0.01
CC(C)Nc1nc([C@@H](C)O)cc2cnc(Nc3ccc(N4CCC5(CCNCC5)C4=O)cn3)nc12 [Compound 784]	–	–	≥ 0.1	< 0.01
CC(C)Nc1nc(C(F)F)cc2cnc(Nc3ccc(N4CCCC(O)C4)nn3)nc12 (stereo not shown) [Compound 226]	0.01 to 0.1	< 0.01	–	–
C[C@@H](O)c1cc2cnc(Nc3ccc(N4CCC(O)CC4)nn3)nc2c(NC2CCC(C)(C)OC2)n1 (stereo partly shown) [Compound 589]	≥ 0.1	< 0.01	–	–
CO[C@H](C)c1cc2cnc(Nc3ccc(CN4CCn5ccnc5C4)cn3)nc2c(NC(C)C)n1 [Compound 275]	≥ 0.1	0.01 to 0.1	–	–
COCC(C)(C)Nc1nc([C@@H](C)O)cc2cnc(Nc3ccc(N4CC[C@H](O)CC4=O)cn3)nc12 [Compound 268]	≥ 0.1	0.01 to 0.1	–	–
CNC1CC2(C1)CN(c1ccc(Nc3ncc4cc([C@@H](C)O)nc(NC(C)C)c4n3)nn1)C2 [Compound 606]	≥ 0.1	< 0.01	–	–
CC(C)Nc1nc([C@@H](C)O)cc2cnc(Nc3ccc(O[C@H]4CCNC4)cn3)nc12 [Compound 566]	≥ 0.1	< 0.01	–	–
CN(C)CCOc1ccc(Nc2ncc3cc(C(F)F)nc(N[C@H]4CC[C@H](O)CC4)c3n2)nc1 [Compound 388]	≥ 0.1	< 0.01	–	–
COCC(C)(C)Nc1nc([C@@H](C)O)cc2cnc(Nc3ccc(C4CCN(C(C)=O)CC4)cn3)nc12 [Compound 225]	≥ 0.1	< 0.01	–	–
CO[C@H](C)c1cc2cnc(Nc3ccc(OCCCN(C)C)cn3)nc2c(NC(C)C)n1 [Compound 283]	≥ 0.1	< 0.01	–	–
CC(C)Nc1nc(C(F)F)cc2cnc(Nc3ccc(N)cn3)nc12 [Compound 87]	< 0.01	< 0.01	–	–
C[C@@H](O)c1cc2cnc(Nc3ccc(N4CCNCC4)nn3)nc2c(NC2CCCC2C(=O)O)n1 (stereo partly shown) [Compound 309]	≥ 0.1	≥ 0.1	–	–

Structure (SMILES)	IC50 (CDK2/cyclin A2; [1]) [µM]	IC50 (CDK4/cyclin D3; [2]) [µM]	IC50 (CDK2/cyclin A2; [3]) [µM]	IC50 (CDK4/cyclin D3; [4]) [µM]
CO[C@H](C)c1cc2cnc(Nc3ccc(N4CCNCC4)nn3)nc2c(NCC2CCOC2)n1 (stereo partly shown) [Compound 321]	≥ 0.1	< 0.01	–	–
CCNc1nc([C@@H](C)O)cc2cnc(Nc3ccc(CN4CCN(C[C@@H](C)O)CC4)cn3)nc12 [Compound 977]	–	–	≥ 0.1	< 0.01
CC(C)Nc1nc(C(F)F)cc2cnc(Nc3ccc(C4=CC(=O)NCC4)cn3)nc12 [Compound 203]	0.01 to 0.1	< 0.01	–	–
CC(C)Nc1nc([C@@H](C)O)cc2cnc(Nc3ccc(CN4CCC[C@@H](O)C4)cn3)nc12 [Compound 1196]	–	–	≥ 0.1	< 0.01
CC(C)Nc1nc([C@@H](C)O)cc2cnc(Nc3ccc(N4CC(C)(CO)C4)nn3)nc12 [Compound 668]	–	–	≥ 0.1	< 0.01
CC1(c2cc3cnc(Nc4ccc(CN5CCNCC5)cn4)nc3c(N[C@H]3CCCOC3)n2)COC1 [Compound 884]	–	–	≥ 0.1	< 0.01
CC(O)c1cc2cnc(Nc3ccc(N4CCNCC4)cn3)nc2c(NC(C)c2cc[nH]n2)n1 (stereo not shown) [Compound 105]	≥ 0.1	< 0.01	–	–
CNC1CC2(C1)CN(c1ccc(Nc3ncc4cc([C@@H](C)OC)nc(NC(C)C)c4n3)nc1)C2 [Compound 512]	≥ 0.1	< 0.01	–	–
CO[C@H](C)c1cc2cnc(Nc3ccc(N4CCNCC4)cn3)nc2c(NC(C)C)n1 [Compound 39]	≥ 0.1	< 0.01	–	–
C[C@@H](O)c1cc2cnc(Nc3ccc(N4CCNCC4=O)cn3)nc2c(N[C@@H]2CCOC2)n1 [Compound 348]	≥ 0.1	< 0.01	–	–
CCCCNc1nc([C@@H](C)O)cc2cnc(Nc3ccc(N4CCNCC4)cn3)nc12 [Compound 922]	–	–	≥ 0.1	< 0.01
CC(C)Nc1nc([C@@H](C)O)cc2cnc(Nc3ccc(C4CCNCC4)nn3)nc12 [Compound 318]	≥ 0.1	< 0.01	–	–
CCCNc1nc([C@@H](C)OC)cc2cnc(Nc3ccc(CN4C[C@H]5C[C@@H]4CN5)cn3)nc12 [Compound 857]	–	–	≥ 0.1	< 0.01
CC(C)Nc1nc(C(F)F)cc2cnc(Nc3ccc(N4CC[C@H](O)CC4=O)cn3)nc12 [Compound 137]	0.01 to 0.1	< 0.01	–	–
CCN1CCN(Cc2ccc(Nc3ncc4cc([C@@H](C)OC)nc(NC(C)C)c4n3)nc2)CC1 [Compound 240]	≥ 0.1	< 0.01	–	–
CC(C)Nc1nc(C2CCOC2)cc2cnc(Nc3ccc4c(n3)CCNC4)nc12 (stereo not shown) [Compound 885]	–	–	≥ 0.1	< 0.01
CCCCNc1nc(C(C)=O)cc2cnc(Nc3ccc(CN4CCNCC4)cn3)nc12 [Compound 911]	–	–	≥ 0.1	< 0.01
CCNc1nc([C@@H](C)O)cc2cnc(Nc3ccc4c(n3)CCN(CCO)C4)nc12 [Compound 1124]	–	–	≥ 0.1	0.01 to 0.1
CC(C)Nc1nc([C@@H](C)O)cc2cnc(Nc3ccc(N4CCNCC4C(F)(F)F)nn3)nc12 (stereo partly shown) [Compound 863]	–	–	≥ 0.1	< 0.01
C[C@@H](O)c1cc2cnc(Nc3ccc(CN4CCN(CCO)CC4)cn3)nc2c(NC(C)(C)C)n1 [Compound 1071]	–	–	≥ 0.1	< 0.01
CC(=O)c1nc(NC(C)C)c2nc(Nc3ccc(N4CCNCC4=O)cn3)ncc2c1Cl [Compound 1031]	–	–	≥ 0.1	< 0.01
CC(C)Nc1nc(C(F)F)cc2cnc(Nc3ccc(OCCO)cn3)nc12 [Compound 155]	0.01 to 0.1	< 0.01	–	–
C[C@@H](O)c1cc2cnc(Nc3ccc(CN4CCN(CCO)CC4)cn3)nc2c(NC23CC(C2)C3)n1 [Compound 1205]	–	–	≥ 0.1	< 0.01
CN(C)CCN1CCc2nc(Nc3ncc4cc(C5CCOC5)nc(N[C@H]5CCCOC5)c4n3)ccc2C1 (stereo partly shown) [Compound 1178]	–	–	≥ 0.1	< 0.01
CC(C)Nc1nc([C@@H](C)O)cc2cnc(Nc3ccc(N4CC5(CC(N(C)C)C5)C4)nn3)nc12 [Compound 611]	≥ 0.1	< 0.01	–	–
